For test [1], the target named is TYK2 (Homo sapiens (Human), UniProt P29597). The experiment in a line: Tyk2 radioactive kinase assay. Type of test: biochemical. The settings on record: ATP 10 μM. In short, it runs like this:
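Recombinant human TYK2 (Invitrogen) was mixed with 20 μM peptide substrate in a buffer of 20 mM Hepes pH 7.5, 10 mM MgCl2, 1 mM EGTA, 0.02% Brij35, 0.02 mg/mL BSA, 0.1 mM […], 2 mM DTT and 1% DMSO, and compounds in DMSO were added. Adding ^33P-ATP (10 μM ATP) started the reaction, which ran 120 min at room temperature. Mixtures were then spotted onto P81 ion-exchange paper, washed thoroughly in 0.75% phosphoric acid, and counted for radioactivity.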

Test [2] has as its system Tyk2-pSTAT4 (IL-12 induced pSTAT4). The experiment in a line: IL-12 induced pSTAT4 in human PBMC. Type of test: cell-based. The settings on record: 1.7 ng/mL IL-12, 30 minutes. The procedure:
(§1) Human PBMC are isolated from buffy coat and are stored frozen for assays as needed. Cells for assay are thawed and resuspended in complete media containing serum, then cells are diluted to 1.67 E6 cells/ml so that 120 ul per well is 200,000 cells. 15 ul of compound or DMSO is added to the well at the desired concentrations and incubated at 1 hr at 37 C. 15 ul of stimulus (final concentration of 1.7 ng/mL IL-12) is added for 30 minutes prior to pSTAT4 and total STAT4 analysis using cell lysates prepared and analyzed by MSD reagents as per manufacturer protocol. The final DMSO concentration of compound in the assay is 0.1%.

Test [3] deals with JAK2 (Homo sapiens (Human), UniProt O60674). As to the kind of experiment: JAK2 radioactive kinase assay. The settings on record: ATP 10 μM. Type of test: biochemical. In a few lines: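 Radiometric assay in Hepes pH 7.5, MgCl2, EGTA, Brij35, BSA, DTT, 1% DMSO, with 10 μM [33P]ATP, 120 min at room temp; P81 paper capture and counting. […]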
The subject of test [4] is JAK2-pSTAT5 (GM-CSF induced pSTAT5). The experiment in a line: GM-CSF induced pSTAT5 in human PBMC. Type of test: cell-based. The following applies: 5 ng/mL GM-CSF. The procedure: as §1
Cells are prepared for analysis as in the above procedure and 15 ul of GM-CSF (final concentration 5 ng/mL) is added for 20 minutes prior to pSTAT5 and total STAT5 analysis using cell lysates prepared and analyzed by MSD reagents as per manufacturer protocol. The final DMSO concentration of compound in the assay is 0.1%.

Usually Ki stands for a dissociation constant, usually derived from enzyme kinetics or from competition with a known ligand. Broadly, the EC50 is the midpoint of the concentration-response curve. Read a high EC50 as a need for much substance.

JAK2, sequence (O60674 whole entry): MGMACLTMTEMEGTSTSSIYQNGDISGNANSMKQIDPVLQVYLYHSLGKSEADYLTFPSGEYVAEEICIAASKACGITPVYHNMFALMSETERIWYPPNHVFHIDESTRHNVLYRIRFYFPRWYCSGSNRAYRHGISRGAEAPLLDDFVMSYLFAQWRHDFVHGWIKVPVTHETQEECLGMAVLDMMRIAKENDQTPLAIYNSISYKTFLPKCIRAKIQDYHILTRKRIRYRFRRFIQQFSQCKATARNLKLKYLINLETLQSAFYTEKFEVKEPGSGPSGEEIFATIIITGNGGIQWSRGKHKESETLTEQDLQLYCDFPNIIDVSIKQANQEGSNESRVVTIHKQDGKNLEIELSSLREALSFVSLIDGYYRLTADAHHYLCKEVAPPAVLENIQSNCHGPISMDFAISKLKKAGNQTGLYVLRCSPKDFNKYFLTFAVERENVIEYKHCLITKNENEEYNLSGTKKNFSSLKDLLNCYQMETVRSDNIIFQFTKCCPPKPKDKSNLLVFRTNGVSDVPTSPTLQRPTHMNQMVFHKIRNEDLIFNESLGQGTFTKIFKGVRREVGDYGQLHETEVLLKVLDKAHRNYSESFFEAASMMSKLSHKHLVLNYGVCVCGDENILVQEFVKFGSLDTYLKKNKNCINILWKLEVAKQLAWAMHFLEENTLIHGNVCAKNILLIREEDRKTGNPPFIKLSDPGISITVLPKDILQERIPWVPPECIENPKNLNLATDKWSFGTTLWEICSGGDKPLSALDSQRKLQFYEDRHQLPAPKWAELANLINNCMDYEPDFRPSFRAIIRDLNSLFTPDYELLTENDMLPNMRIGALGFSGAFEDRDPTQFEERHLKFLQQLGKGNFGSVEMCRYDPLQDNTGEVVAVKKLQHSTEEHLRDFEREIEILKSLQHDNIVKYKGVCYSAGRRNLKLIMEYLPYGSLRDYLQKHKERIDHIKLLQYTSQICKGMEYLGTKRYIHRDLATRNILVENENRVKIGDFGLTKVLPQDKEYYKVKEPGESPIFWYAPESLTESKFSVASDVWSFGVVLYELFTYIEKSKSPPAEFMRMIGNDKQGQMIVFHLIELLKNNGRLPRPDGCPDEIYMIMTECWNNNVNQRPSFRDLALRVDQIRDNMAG
TYK2, sequence (P29597 whole entry): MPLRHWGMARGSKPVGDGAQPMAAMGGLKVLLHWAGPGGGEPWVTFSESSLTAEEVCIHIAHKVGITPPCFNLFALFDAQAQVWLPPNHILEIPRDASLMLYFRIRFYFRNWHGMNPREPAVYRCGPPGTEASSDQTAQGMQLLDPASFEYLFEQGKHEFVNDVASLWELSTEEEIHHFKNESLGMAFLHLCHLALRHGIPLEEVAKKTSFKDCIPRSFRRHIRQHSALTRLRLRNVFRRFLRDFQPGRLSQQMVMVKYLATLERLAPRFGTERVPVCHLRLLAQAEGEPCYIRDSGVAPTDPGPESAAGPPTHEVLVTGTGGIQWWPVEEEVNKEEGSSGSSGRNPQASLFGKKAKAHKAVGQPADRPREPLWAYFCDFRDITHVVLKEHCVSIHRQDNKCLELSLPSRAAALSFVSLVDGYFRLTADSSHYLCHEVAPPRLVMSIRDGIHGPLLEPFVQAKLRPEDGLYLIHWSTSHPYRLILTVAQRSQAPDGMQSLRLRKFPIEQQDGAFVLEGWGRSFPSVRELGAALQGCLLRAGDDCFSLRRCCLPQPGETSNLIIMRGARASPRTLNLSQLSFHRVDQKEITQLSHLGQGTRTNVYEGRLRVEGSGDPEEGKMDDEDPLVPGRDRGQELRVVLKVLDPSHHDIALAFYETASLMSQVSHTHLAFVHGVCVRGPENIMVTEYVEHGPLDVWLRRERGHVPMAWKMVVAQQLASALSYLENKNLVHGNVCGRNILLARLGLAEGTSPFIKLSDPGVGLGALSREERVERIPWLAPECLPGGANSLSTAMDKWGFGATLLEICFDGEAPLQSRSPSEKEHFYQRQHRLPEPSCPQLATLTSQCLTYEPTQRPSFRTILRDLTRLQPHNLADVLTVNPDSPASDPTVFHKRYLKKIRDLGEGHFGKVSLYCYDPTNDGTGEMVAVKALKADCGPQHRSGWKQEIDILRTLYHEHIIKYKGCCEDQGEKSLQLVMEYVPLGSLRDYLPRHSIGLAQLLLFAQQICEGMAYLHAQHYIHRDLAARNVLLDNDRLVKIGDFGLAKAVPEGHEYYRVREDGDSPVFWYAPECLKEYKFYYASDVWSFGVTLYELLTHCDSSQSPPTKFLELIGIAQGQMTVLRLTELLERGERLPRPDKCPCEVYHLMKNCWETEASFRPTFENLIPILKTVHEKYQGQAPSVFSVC

`N#Cc1cccc(F)c1-c1cc(-n2ccc(N3CC[C@H](C#N)[C@@H](O)C3)n2)c2c(n1)CNC2=O` [I-216, (3R,4R)-1-(1-(2-(2-cyano-6-fluorophenyl)-5-oxo-6,7-dihydro-5H-pyrrolo[3,4-b]pyridin-4-yl)-1H-pyrazol-3-yl)-3-hydroxypiperidine-4-carbonitrile]: the Ki in test [1] and in test [3] was 0.1 to 10 nM throughout. The values for the EC50 in test [2] and in test [4] (20 minutes) were 30 to 100 nM and 100 to 2000 nM, respectively.

For the compound `CC(=O)Nc1ccn(-c2cc(-c3c(F)cccc3C#N)nc3c2C(=O)NC3)n1` [I-212, N-(1-(2-(2-cyano-6-fluorophenyl)-5-oxo-6,7-dihydro-5H-pyrrolo[3,4-b]pyridin-4-yl)-1H-pyrazol-3-yl)acetamide], the figures for the Ki in test [1] and in test [3] were 0.1 to 10 nM and 100 to 1000 nM, respectively. Further, the EC50 in test [2] (Homo sapiens, PBMC, 0.5 h) is 100 to 2000 nM; in test [4] (Homo sapiens, PBMC, 20 min) it was greater than 2000 nM.

Take `N#Cc1cccc(F)c1-c1cc(-n2cc3c(n2)CNC3)c2c(n1)CNC2=O` [I-124, 2-(4-(5,6-dihydropyrrolo[3,4-c]pyrazol-2 (4H)-yl)-5-oxo-6,7-dihydro-5H-pyrrolo[3,4-b]pyridin-2-yl)-3-fluorobenzonitrile]: the results for the Ki in test [1] and in test [3] were 10 to 100 nM and 100 to 1000 nM, respectively. For the same compound, the EC50 in test [2] (Homo sapiens, PBMC, 0.5 h) was greater than 2000 nM; in test [4] (Homo sapiens, PBMC, 20 min), greater than 2000 nM.

As for `N#Cc1cccc(F)c1-c1cc(-n2ccc([C@H]3CCCO3)n2)c2c(n1)CNC2=O` [I-103, (R)-3-fluoro-2-(5-oxo-4-(3-(tetrahydrofuran-2-yl)-1H-pyrazol-1-yl)-6,7-dihydro-5H-pyrrolo[3,4-b]pyridin-2-yl)benzonitrile], the Ki lay in the range of 0.1 to 10 nM in test [1] and 10 to 100 nM in test [3]. The EC50 lay within 100 to 2000 nM in test [2] (Homo sapiens, PBMC, 0.5 h) and 100 to 2000 nM in test [4] (Homo sapiens, PBMC, 20 min).

Regarding `N#Cc1cccc(F)c1-c1cc(-n2cc(F)c(N3CC[C@@H](O)C3)n2)c2c(n1)CNC2=O` [I-189, (R)-3-fluoro-2-(4-(4-fluoro-3-(3-hydroxypyrrolidin-1-yl)-1H-pyrazol-1-yl)-5-oxo-6,7-dihydro-5H-pyrrolo[3,4-b]pyridin-2-yl)benzonitrile], the figures for the Ki in test [1] and in test [3] were 0.1 to 10 nM and 10 to 100 nM, respectively. In addition, the EC50 is 100 to 2000 nM in test [2] (Homo sapiens, PBMC, 0.5 h) and greater than 2000 nM in test [4] (Homo sapiens, PBMC, 20 min).

On to `N#Cc1cccc(F)c1-c1cc(-n2ccc(N3CCC[C@@](O)(C(F)(F)F)C3)n2)c2c(n1)CNC2=O` [I-89, (S)-3-fluoro-2-(4-(3-(3-hydroxy-3-(trifluoromethyl)piperidin-1-yl)-1H-pyrazol-1-yl)-5-oxo-6,7-dihydro-5H-pyrrolo[3,4-b]pyridin-2-yl)benzonitrile], for which the Ki in test [1] was in the range of 0.1 to 10 nM; in test [3], 10 to 100 nM. Moreover, the EC50 was 100 to 2000 nM in test [2] (Homo sapiens, PBMC, 0.5 h) and greater than 2000 nM in test [4] (Homo sapiens, PBMC, 20 min).

For the compound `N#Cc1cccc(F)c1-c1cc(-n2ccc(N3CCC[C@@H](CO)C3)n2)c2c(n1)CNC2=O` [I-97, (R)-3-fluoro-2-(4-(3-(3-(hydroxymethyl)piperidin-1-yl)-1H-pyrazol-1-yl)-5-oxo-6,7-dihydro-5H-pyrrolo[3,4-b]pyridin-2-yl)benzonitrile], the values for the Ki in test [1] and in test [3] were 0.1 to 10 nM and 10 to 100 nM, respectively. For the same compound, the EC50 in test [2] (Homo sapiens, PBMC, 0.5 h) was in the range of 30 to 100 nM; in test [4] (Homo sapiens, PBMC, 20 min) it was 100 to 2000 nM.

Take `CO[C@H]1CN(c2ccn(-c3cc(-c4c(F)cccc4C#N)nc4c3C(=O)NC4)n2)CC[C@@H]1O` [I-202, 3-fluoro-2-(4-(3-((3S,4S)-4-hydroxy-3-methoxypiperidin-1-yl)-1H-pyrazol-1-yl)-5-oxo-6,7-dihydro-5H-pyrrolo[3,4-b]pyridin-2-yl)benzonitrile]: the Ki lay within 0.1 to 10 nM in test [1] and 10 to 100 nM in test [3]. Besides, the EC50 in test [2] (Homo sapiens, PBMC, 0.5 h) lay within 30 to 100 nM; in test [4] (Homo sapiens, PBMC, 20 min) it was 100 to 2000 nM.

On to `CO[C@H]1CCN(c2ccn(-c3cc(-c4c(F)cccc4C#N)nc4c3C(=O)NC4)n2)C[C@@H]1O` [I-210, 3-fluoro-2-(4-(3-((3S,4S)-3-hydroxy-4-methoxypiperidin-1-yl)-1H-pyrazol-1-yl)-5-oxo-6,7-dihydro-5H-pyrrolo[3,4-b]pyridin-2-yl)benzonitrile], for which the inhibitory constant (Ki) in test [1] was in the range of 0.1 to 10 nM; in test [3], 10 to 100 nM. Further, the EC50 in test [2] (Homo sapiens, PBMC, 0.5 h) is 30 to 100 nM; in test [4] (Homo sapiens, PBMC, 20 min) it was 100 to 2000 nM.

Turning to `N#Cc1cccc(F)c1-c1cc(-n2ccc(N3CCC[C@@H](O)[C@@H](O)C3)n2)c2c(n1)CNC2=O` [I-179, 2-(4-(3-((3S,4R)-3,4-dihydroxyazepan-1-yl)-1H-pyrazol-1-yl)-5-oxo-6,7-dihydro-5H-pyrrolo[3,4-b]pyridin-2-yl)-3-fluorobenzonitrile], the Ki in test [1] was in the range of 0.1 to 10 nM; in test [3], 10 to 100 nM. The EC50 is 30 to 100 nM in test [2] (Homo sapiens, PBMC, 0.5 h) and greater than 2000 nM in test [4] (Homo sapiens, PBMC, 20 min).

Take `[2H]C1([2H])C[C@H](O)C([2H])([2H])N1c1ccn(-c2cc(-c3c(F)cccc3C#N)nc3c2C(=O)NC3)n1` [I-142, (S)-3-fluoro-2-(4-(3-(3-hydroxypyrrolidin-1-yl-2,2,5,5-d4)-1H-pyrazol-1-yl)-5-oxo-6,7-dihydro-5H-pyrrolo[3,4-b]pyridin-2-yl)benzonitrile]: the Ki in test [1] is 0.009 to 0.1 nM; in test [3] it was 0.1 to 10 nM. Besides, the EC50 is 30 to 100 nM in test [2] (Homo sapiens, PBMC, 0.5 h) and 100 to 2000 nM in test [4] (Homo sapiens, PBMC, 20 min).

For `N#Cc1cccc(F)c1-c1cc(-n2ccc(N3CCC[C@H](C(=O)N4CCCC4)C3)n2)c2c(n1)CNC2=O` [I-168, (S)-3-fluoro-2-(5-oxo-4-(3-(3-(pyrrolidine-1-carbonyl)piperidin-1-yl)-1H-pyrazol-1-yl)-6,7-dihydro-5H-pyrrolo[3,4-b]pyridin-2-yl)benzonitrile], the Ki in test [1] and in test [3] was 0.1 to 10 nM in each case. Moreover, the EC50 in test [2] (Homo sapiens, PBMC, 0.5 h) lay within 100 to 2000 nM; in test [4] (Homo sapiens, PBMC, 20 min), 100 to 2000 nM.

Consider `CN1CCO[C@@H]2CN(c3ccn(-c4cc(-c5c(F)cccc5C#N)nc5c4C(=O)NC5)n3)C[C@@H]21` [I-225, 3-fluoro-2-(4-(3-((4aS,7aR)-4-methylhexahydropyrrolo[3,4-b][1,4]oxazin-6 (2H)-yl)-1H-pyrazol-1-yl)-5-oxo-6,7-dihydro-5H-pyrrolo[3,4-b]pyridin-2-yl)benzonitrile], for which the Ki in test [1] and in test [3] was 0.1 to 10 nM each time. The EC50 is 100 to 2000 nM in test [2] (Homo sapiens, PBMC, 0.5 h) and 100 to 2000 nM in test [4] (Homo sapiens, PBMC, 20 min).

Take `CO[C@H]1CN(c2ccn(-c3cc(-c4c(F)cccc4C#N)nc4c3C(=O)NC4)n2)C[C@H]1O` [I-153, 3-fluoro-2-(4-(3-((3R,4S)-3-hydroxy-4-methoxypyrrolidin-1-yl)-1H-pyrazol-1-yl)-5-oxo-6,7-dihydro-5H-pyrrolo[3,4-b]pyridin-2-yl)benzonitrile]: the Ki in test [1] lay within 0.1 to 10 nM. The EC50 in test [2] (Homo sapiens, PBMC, 0.5 h) was 30 to 100 nM; in test [4] (Homo sapiens, PBMC, 20 min), greater than 2000 nM.

In the case of `O=C1NCc2nc(-c3c(F)cccc3F)cc(-n3ccc(N4CCOCC4CO)n3)c21` (stereo not shown) [I-90, 2-(2,6-difluorophenyl)-4-(3-(3-(hydroxymethyl)morpholino)-1H-pyrazol-1-yl)-6,7-dihydro-5H-pyrrolo[3,4-b]pyridin-5-one], the results for the Ki in test [1] and in test [3] were 0.1 to 10 nM and 100 to 1000 nM, respectively. Moreover, the EC50 in test [4] (Homo sapiens, PBMC, 20 min) is greater than 2000 nM.

With `CC1(C#N)CCCN(c2ccn(-c3cc(-c4c(F)cccc4C#N)nc4c3C(=O)NC4)n2)C1` (stereo not shown) [I-133, 1-(1-(2-(2-cyano-6-fluorophenyl)-5-oxo-6,7-dihydro-5H-pyrrolo[3,4-b]pyridin-4-yl)-1H-pyrazol-3-yl)-3-methylpiperidine-3-carbonitrile], the Ki in test [1] and in test [3] was 0.1 to 10 nM each time. This compound also yielded an EC50 in test [4] (Homo sapiens, PBMC, 20 min) greater than 2000 nM.

Turning to `N#Cc1cccc(F)c1-c1cc(-n2ccc(N3CCC4(C3)OCC(O)CO4)n2)c2c(n1)CNC2=O` (stereo not shown) [I-192, 3-fluoro-2-(4-(3-(8-hydroxy-6,10-dioxa-2-azaspiro[4.5]decan-2-yl)-1H-pyrazol-1-yl)-5-oxo-6,7-dihydro-5H-pyrrolo[3,4-b]pyridin-2-yl)benzonitrile], the Ki in test [1] and in test [3] was 0.1 to 10 nM in each case. Moreover, the EC50 in test [4] (Homo sapiens, PBMC, 20 min) was greater than 2000 nM.

For the compound `N#Cc1cccc(F)c1-c1cc(-n2ccc(N3C[C@@H](O)[C@@H](O)C3)n2)c2c(n1)CNC2=O` [I-109, 2-(4-(3-((3S,4R)-3,4-dihydroxypyrrolidin-1-yl)-1H-pyrazol-1-yl)-5-oxo-6,7-dihydro-5H-pyrrolo[3,4-b]pyridin-2-yl)-3-fluorobenzonitrile], the Ki in test [1] and in test [3] was 0.1 to 10 nM throughout. Further, in test [4] (Homo sapiens, PBMC, 20 min), the EC50 is greater than 2000 nM.

As to `N#Cc1cccc(F)c1-c1cc(-n2ccc(N3CC[C@@H](F)[C@@H](O)C3)n2)c2c(n1)CNC2=O` [I-173, 3-fluoro-2-(4-(3-((3S,4R)-4-fluoro-3-hydroxypiperidin-1-yl)-1H-pyrazol-1-yl)-5-oxo-6,7-dihydro-5H-pyrrolo[3,4-b]pyridin-2-yl)benzonitrile], the Ki in test [1] was 0.009 to 0.1 nM; in test [3] it was 0.1 to 10 nM. In test [4] (Homo sapiens, PBMC, 20 min), this compound yielded an EC50 greater than 2000 nM.

The values are drawn from patent US10781204B2, “TYK2 inhibitors and uses thereof” (Nimbus Lakshmi, Inc., priority 2015, dated 2020).
